# Results as given in the NIST ThermoML archive (doi:10.1021/je1002048).
# ± gives the expanded uncertainty stated by the source.
# Key:
# [1] = Liquid; for Normal boiling temperature: Ebulliometric method (Recirculating still)
# [2] = excess molar enthalpy (molar enthalpy of mixing); xn = mol fraction of the nth substance listed; details: 303.15 K, 101 kPa, Liquid, Calvet calorimetry
SMILES,Normal boiling temperature [1],"mass density ([1]; 298.15 K, 101.33 kPa, Pycnometric method)",excess molar enthalpy ([2]; x2 = 0.032),excess molar enthalpy ([2]; x2 = 0.082),excess molar enthalpy ([2]; x2 = 0.127),excess molar enthalpy ([2]; x2 = 0.192),excess molar enthalpy ([2]; x2 = 0.251),excess molar enthalpy ([2]; x2 = 0.351),excess molar enthalpy ([2]; x2 = 0.447),excess molar enthalpy ([2]; x2 = 0.502),excess molar enthalpy ([2]; x2 = 0.572),excess molar enthalpy ([2]; x2 = 0.653),excess molar enthalpy ([2]; x2 = 0.734),excess molar enthalpy ([2]; x2 = 0.874)
CCO [ethanol],78.2 ± 0.1 °C,–,–,–,–,–,–,–,–,–,–,–,–,–
c1ccncc1 [pyridine],116 ± 0.1 °C,980.8 ± 1 kg/m3,–,–,–,–,–,–,–,–,–,–,–,–
c1ccncc1 [pyridine] + CCO,–,–,-0.000359 ± 0.000191 kcal/mol,-0.00153 ± 0.000191 kcal/mol,-0.00308 ± 0.000239 kcal/mol,-0.00545 ± 0.000311 kcal/mol,-0.00827 ± 0.000406 kcal/mol,-0.0122 ± 0.00055 kcal/mol,-0.0172 ± 0.000741 kcal/mol,-0.0185 ± 0.000789 kcal/mol,-0.0189 ± 0.000813 kcal/mol,-0.0152 ± 0.000669 kcal/mol,-0.0126 ± 0.000574 kcal/mol,-0.00598 ± 0.000311 kcal/mol
